In patent US11840686B2, “Modulation of prekallikrein (PKK) expression” (Ionis Pharmaceuticals, Inc., priority 2013, dated 2023):
Values joined by “and” are separate entries in the source; they are usually repeats but may differ in a detail not shown here. Equal values may be shown once. Strand notation (5' to 3'): a small letter for the sugar, then the base; units joined by * are phosphorothioate-linked, units joined directly phosphodiester-linked; [ ] holds rarer units or linkages, { } end groups; capitals alone tell only the bases. e = 2'-O-(2-methoxyethyl) (MOE); k = constrained ethyl (cEt); [5mC] = 5-methylcytosine; d = 2'-deoxy (DNA)

Legend:
[1] = tested on: human PKK mRNA; assay: Antisense inhibition of human PKK mRNA in HepaRG cells, 1,000 nM, MOE/deoxy/cEt oligonucleotides (Example 3); assay type: cell-based
Outline: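 Readout is percent PKK mRNA reduction against untreated controls, by real-time PCR (RTS3454) adjusted for total RNA via RIBOGREEN. Oligonucleotides, phosphorothioate gapmers of 16 nucleosides with cEt, MOE and deoxy sugars, were delivered at 1,000 nM by electroporation to 20,000 HepaRG cells/well for roughly 24 h.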

[2] = tested on: human PKK mRNA; assay: Dose-dependent antisense inhibition of human PKK in HepaRG cells, 0.11-3.00 uM (Example 6); assay type: cell-based; settings: for IC50: 0.11-3.00 μM; for percent inhibition of PKK mRNA, 1.00 μM / percent inhibition of PKK mRNA, 3.00 μM / percent inhibition of PKK mRNA, 0.11 μM / percent inhibition of PKK mRNA, 0.33 μM: electroporation, approx. 16 hours, relative to untreated control cells
Procedure: Cells were plated at a density of 20,000 cells per well and transfected using electroporation with 0.11 μM, 0.33 μM, 1.00 μM, and 3.00 μM concentrations of antisense oligonucleotide. After a treatment period of approximately 16 hours, RNA was isolated from the cells and PKK mRNA levels were measured by quantitative real-time PCR. Human PKK primer probe set RTS3454 was used to measure mRNA levels. PKK mRNA levels were adjusted according to total RNA content, as measured by RIBOGREEN®. The antisense oligonucleotides were tested in a series of experiments that had similar culture conditions.
The half maximal inhibitory concentration (IC50) of each oligonucleotide is also presented.

[3] = HepaRG cells, 1,000 nM antisense oligonucleotide, Table 29
[4] = HepaRG cells, electroporation with 1,000 nM antisense oligonucleotide, approx. 24 hours, PKK mRNA by RT-PCR (RTS3454), relative to untreated control cells, Table 25 experiment
[5] = HepaRG cells, electroporation with 1,000 nM antisense oligonucleotide, approx. 24 hours, PKK mRNA by RT-PCR (RTS3454), relative to untreated control cells, Table 26 experiment
[6] = HepaRG cells, electroporation with 1,000 nM antisense oligonucleotide, approximately 24 hours, primer probe set RTS3454, relative to untreated control cells, experiment of Table 23
[7] = HepaRG cells, electroporation with 1,000 nM antisense oligonucleotide, approximately 24 hours, primer probe set RTS3454, relative to untreated control cells, experiment of Table 24
[8] = Table 19, HepaRG cells, electroporation with 1,000 nM antisense oligonucleotide, approximately 24 hours, PKK mRNA by RT-PCR (RTS3454), relative to untreated control cells
[9] = Table 20, HepaRG cells, electroporation with 1,000 nM antisense oligonucleotide, approximately 24 hours, PKK mRNA by RT-PCR (RTS3454), relative to untreated control cells
[10] = Table 22 experiment, HepaRG cells, electroporation with 1,000 nM antisense oligonucleotide, approx. 24 hours, PKK mRNA by RT-PCR (RTS3454), relative to untreated control cells
[11] = Table 27, HepaRG cells, 1,000 nM antisense oligonucleotide, human PKK mRNA
[12] = Table 30, human PKK mRNA, HepaRG cells, 1,000 nM antisense oligonucleotide

Row | Substance | % inhibition [1, 3] | % inhibition [1, 4] | % inhibition [1, 5] | % inhibition [1, 6] | % inhibition [1, 7] | % inhibition ([1]; PKK mRNA, HepaRG cells, 1,000 nM antisense oligonucleotide, Table 31) | % inhibition [1, 8] | % inhibition [1, 9] | % inhibition ([1]; Table 21 experiment, HepaRG cells, electroporation with 1,000 nM antisense oligonucleotide, approx. 24 hours, PKK mRNA by RT-PCR (RTS3454), relative to untreated control cells) | % inhibition [1, 10] | % inhibition [1, 11] | % inhibition ([1]; Table 28, HepaRG cells, 1,000 nM antisense oligonucleotide, human PKK mRNA) | % inhibition [1, 12] | IC50 [2] | percent inhibition of PKK mRNA, 1.00 μM [2] | percent inhibition of PKK mRNA, 3.00 μM [2] | percent inhibition of PKK mRNA, 0.11 μM [2] | percent inhibition of PKK mRNA, 0.33 μM [2]
1 | 547747 (eT*e[5mC]*kA*d[5mC]*dT*dG*dT*dA*d[5mC]*dT*dA*dG*dT*kT*kT*e[5mC]) [compound 547747] | 64% | 66% | 80% | 83% | 80% | 88% | 95% | 84% | 88% | 91% | 67% | 64% | 64% | 400 nM and 300 nM and 500 nM | 81% and 90% and 72% and 85% | 89% and 92% and 90% and 96% |  | 
2 | 548265 (antisense e[5mC]*e[5mC]*kT*d[5mC]*dT*dT*dG*dA*dT*dT*dT*dG*dG*kG*k[5mC]*eA) [compound 548265] |  |  | 85% |  |  |  |  |  |  |  |  |  |  |  | 78% | 67% | 47% | 69%
3 | 548061 (eG*e[5mC]*kT*dT*dG*dT*dG*dT*d[5mC]*dA*d[5mC]*d[5mC]*dT*kT*kT*eG; antisense) [compound 548061] |  |  |  |  | 86% |  |  |  |  |  |  |  |  | 400 nM | 59% |  | 26% | 61%
4 | 547947 (eG*eG*kA*dA*d[5mC]*dT*dT*dG*dG*dT*dG*dT*dG*k[5mC]*k[5mC]*eA; antisense) [compound 547947] |  |  |  | 80% |  |  |  |  |  |  |  |  |  | 300 nM | 81% | 93% | 24% | 58%
5 | 548278 (antisense eG*eG*kT*dT*d[5mC]*d[5mC]*d[5mC]*dT*dA*dG*d[5mC]*dG*dG*kT*k[5mC]*e[5mC]) [compound 548278] |  |  | 74% |  |  |  |  |  |  |  |  |  |  | 400 nM | 78% | 93% | 3% | 59%
6 | 548557 (antisense eG*eT*kT*dA*d[5mC]*dT*d[5mC]*dT*dG*dT*dG*dA*dT*k[5mC]*k[5mC]*eA) [compound 548557] | 81% |  |  |  |  |  |  |  |  |  |  |  |  | 400 nM | 82% | 95% | 5% | 47%
7 | 547861 (antisense eA*e[5mC]*kT*d[5mC]*d[5mC]*dT*d[5mC]*dT*d[5mC]*dA*dT*dA*dT*k[5mC]*kA*eA) [compound 547861] |  |  |  |  |  |  |  | 0% |  | 57% |  |  |  | 500 nM | 75% | 84% | 7% | 40%
8 | 548425 (antisense eA*eA*k[5mC]*dA*dG*dT*dA*dT*d[5mC]*dA*d[5mC]*dT*dG*kT*k[5mC]*e[5mC]) [compound 548425] |  |  |  |  |  |  |  |  |  |  |  |  | 90% | 200 nM | 68% | 80% | 41% | 57%
9 | 548106 (antisense e[5mC]*e[5mC]*kA*dT*dG*dT*dA*d[5mC]*dT*d[5mC]*dA*dG*d[5mC]*kG*kA*e[5mC]) [compound 548106] |  |  |  |  |  |  | 79% |  |  |  |  |  |  |  | 82% | 94% | 53% | 54%
10 | 548069 (e[5mC]*e[5mC]*kA*dA*d[5mC]*dA*dG*dT*dT*dG*dG*dT*dA*kT*kA*eA; antisense) [compound 548069] |  |  |  |  | 57% |  |  |  |  |  |  |  |  | 1900 nM | 27% | 66% | 6% | 0%
11 | 548010 (eA*eG*kT*dG*dT*dT*dA*d[5mC]*dA*d[5mC]*dA*dA*dT*k[5mC]*kT*e[5mC]; antisense) [compound 548010] |  |  |  |  | 80% |  |  |  |  |  |  |  |  | 1400 nM | 49% | 64% | 0% | 11%
12 | 547843 (antisense e[5mC]*eA*k[5mC]*dT*dT*dA*dT*dT*dT*dG*dA*dT*dG*kA*k[5mC]*e[5mC]) [compound 547843] |  |  |  |  |  |  |  | 83% |  | 83% |  |  |  | 400 nM | 80% | 91% | 0% | 52%
13 | 548338 (antisense eA*eT*kG*dA*dA*dA*d[5mC]*dT*dG*dT*dG*dG*d[5mC]*kT*k[5mC]*eG) [compound 548338] |  |  |  |  |  |  |  |  |  |  | 80% |  |  | 200 nM | 79% | 95% | 41% | 58%
14 | 547870 (antisense e[5mC]*eT*kA*dA*d[5mC]*d[5mC]*dT*dT*dA*dG*dA*d[5mC]*dA*k[5mC]*kA*eT) [compound 547870] |  |  |  |  |  |  |  | 89% |  | 83% |  |  |  | 600 nM | 80% | 97% | 0% | 44%
15 | 547851 (antisense eT*eA*kA*dA*dT*dG*dT*d[5mC]*dT*d[5mC]*dG*dA*dT*kG*kG*e[5mC]) [compound 547851] |  |  |  |  |  |  |  | 93% |  | 84% |  |  |  | 400 nM | 83% |  | 16% | 46%
16 | 548147 (e[5mC]*eG*kT*d[5mC]*d[5mC]*dT*dT*dA*dG*dG*dA*dT*dG*k[5mC]*kA*eA; antisense) [compound 548147] |  |  |  |  |  |  | 81% |  |  |  |  |  |  |  | 80% |  | 59% | 94%
17 | 547998 (antisense e[5mC]*eT*kT*dG*dT*dG*dT*d[5mC]*d[5mC]*d[5mC]*dA*dT*dA*k[5mC]*kG*e[5mC]) [compound 547998] |  |  |  |  | 82% |  |  |  |  |  |  |  |  |  | 91% | 91% | 55% | 73%
18 | 548217 (e[5mC]*eT*kG*dT*dG*d[5mC]*dA*dT*dA*dG*dA*d[5mC]*d[5mC]*k[5mC]*k[5mC]*eA; antisense) [compound 548217] |  | 69% |  |  |  |  |  |  |  |  |  |  |  | 900 nM | 54% | 71% | 22% | 24%
19 | 547859 (antisense e[5mC]*e[5mC]*kT*d[5mC]*dT*d[5mC]*dA*dT*dA*dT*d[5mC]*dA*dA*k[5mC]*kT*e[5mC]) [compound 547859] |  |  |  |  |  |  |  | 77% |  | 88% |  |  |  | 300 nM | 83% | 78% | 29% | 56%
20 | 548125 (antisense e[5mC]*eT*kA*dG*dA*d[5mC]*dT*d[5mC]*dT*dG*dG*dA*d[5mC]*kT*kG*e[5mC]) [compound 548125] |  |  |  |  |  |  | 89% |  |  |  |  |  |  | 300 nM | 81% | 73% | 33% | 50%
